From US20240199546A1, “INHIBITORS OF SOLUTE CARRIER FAMILY 6A MEMBER 19 (SLC6A19) AND METHODS OF USE THEREOF” (Maze Therapeutics, Inc., priority 2022, published 2024)

How the values were obtained:
[1] = biological target: T1, human SLC6A19 and TMEM27 (Homo sapiens, UniProt Q695T7); experiment: 13C6,15N-isoleucine uptake in CHO cells with doxycycline-inducible expression of human SLC6A19 and TMEM27, RapidFire mass spectrometry (Example B-2); format: cell-based; details: read-out: SLC6A19_RapidFire Uptake Assay IC50
T1 construct: expressed in transfected cells
T1 sequence (Q695T7 1-634): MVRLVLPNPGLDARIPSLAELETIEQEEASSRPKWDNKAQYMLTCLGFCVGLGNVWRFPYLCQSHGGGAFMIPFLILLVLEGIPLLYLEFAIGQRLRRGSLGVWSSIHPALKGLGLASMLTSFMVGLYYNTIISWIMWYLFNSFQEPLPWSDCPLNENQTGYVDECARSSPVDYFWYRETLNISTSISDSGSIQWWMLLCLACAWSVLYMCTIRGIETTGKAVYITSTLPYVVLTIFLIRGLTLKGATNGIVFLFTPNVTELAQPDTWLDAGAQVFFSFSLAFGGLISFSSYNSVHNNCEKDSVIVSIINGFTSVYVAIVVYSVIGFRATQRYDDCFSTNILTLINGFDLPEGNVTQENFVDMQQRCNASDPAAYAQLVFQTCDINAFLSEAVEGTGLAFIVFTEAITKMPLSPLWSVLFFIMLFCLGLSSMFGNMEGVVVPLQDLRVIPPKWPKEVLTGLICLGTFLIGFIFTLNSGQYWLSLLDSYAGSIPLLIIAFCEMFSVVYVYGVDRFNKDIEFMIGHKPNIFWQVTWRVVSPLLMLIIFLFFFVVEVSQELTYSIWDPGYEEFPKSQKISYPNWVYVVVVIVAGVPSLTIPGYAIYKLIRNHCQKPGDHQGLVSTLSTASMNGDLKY
T1 sequence (Q9HBJ8 15-222 partner): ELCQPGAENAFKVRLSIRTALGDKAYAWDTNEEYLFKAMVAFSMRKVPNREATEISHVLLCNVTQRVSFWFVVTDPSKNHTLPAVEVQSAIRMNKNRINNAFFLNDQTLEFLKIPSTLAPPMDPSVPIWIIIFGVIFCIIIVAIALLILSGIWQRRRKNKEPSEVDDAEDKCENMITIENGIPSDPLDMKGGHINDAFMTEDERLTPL
Protocol: Assay ready vials of CHO cells with doxycycline inducible expression of human SLC6A19 and TMEM27 were thawed, plated in T175 flasks containing DMEM/F12 media, 10% FBS, 1% Penicillin-Streptomycin, 1× UltraGlutamate, 1 mM Sodium Pyruvate, Sodium Bicarbonate (7.5 mL of 7.5% solution in 500 mL media final), 5 μg/mL Blasticidin, 150 μg/mL Hygromycin B Gold, and 500 μg/mL G418, and incubated (humidified, 37° C. with 5% CO2) for 48 hours. Media was then removed, flasks were washed with 20 mL of DPBS, and 5 mL of TrypLE™ Express was added to each flask to initiate cell dissociation. After 5 minutes, 10 mL of cell culture media was added to each flask and mixed. The cell suspension was collected and centrifuged for 5 minutes at 200×g. The supernatant was removed, and the pellet was resuspended in 10 mL of cell culture media. Resuspended cells were counted using a Vi-Cell. 30 μL/well (20,000 cells/well) of cell suspension was added to Poly-D-Lysine 384-well black/clear plates. Plates were incubated (humidified, 37° C. with 5% CO2) for 24 hours. To induce expression of human SLC6A19 and TMEM27, 10 μL of assay culture media containing 4 μg/mL doxycycline was added to each well. Assay plates were then incubated (humidified, 37° C. with 5% CO2) overnight. After incubation, the media was removed, and wells were washed 3 times with 40 μL of warmed DPBS. Next, 10 μL of warmed assay buffer (137 mM NaCl, 5 mM KCl, 1 mM CaCl2), 1 mM MgCl2, 10 mM HEPES, 10 mM glucose, pH 7.2) was added to each well. 10 μL/well of test compound or positive control compound to define 0% activity (i.e., 100% inhibition), was then added into each well. All compounds were plated in a duplicate 10-point dilution series that consisted of 2-fold dilutions. The plates were incubated (humidified, 37° C. with 5% C2) with compound for 20 minutes. Afterwards, 20 μL/well of 2 mM 13C6,15N-1-isoleucine was added to each well and plates were incubated again (humidified, 37° C. with 5% C02) for another 20 minutes. Assay buffer was then removed, and plates were washed. 70 μL/well of stop solution (75% acetonitrile, 25% HPLC grade water, 250 nM 1-leucine-1-13C (RapidFire standard)) was added to each well. The plates were sealed and then placed in a −20° C. freezer for 20 minutes. The plates were thawed at room temperature for 20 minutes and then centrifuge for 20 minutes at 3000 rpm. Using an ABSciex API4000 mass spectrometer, processed samples were loaded onto the graphitic carbon SPE-column. The time for aspiration, load/wash, elution and re-equilibration time was 600, 1500, 3000 and 500 milliseconds, respectively. Peak areas were calculated using RapidFire Integrator software.

[2] = biological target: T1, human SLC6A19 and TMEM27; experiment: Radiolabelled (3H) leucine uptake in CHO cells with doxycycline-inducible expression of human SLC6A19 and TMEM27 (Example B-1); format: cell-based; details: CHO cells with doxycycline-inducible expression of human SLC6A19 and TMEM27, read-out: SLC6A19_Radioligand Uptake Assay IC50
In short: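 CHO cells were induced with doxycycline for 18 h at 37 °C, washed in HBSS, then exposed to compounds for 1 h: 8-point, 3-fold dilutions in duplicate, 0.5% DMSO final. Uptake measured by scintillation counting after 2 h shaking. Activity normalized with positive control as 0% and DMSO as 100%.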

Compound	IC50 [1]	IC50 [2]
CC1(C(=O)NCc2cc3cc(F)c(OCc4ccon4)cc3[nH]2)CC1 [Compound 6, N-((5-fluoro-6-(isoxazol-3-ylmethoxy)-1H-indol-2-yl)methyl)-1-methylcyclopropane-1-carboxamide]	0.148 µM	0.175 µM
CC1(C(=O)NCc2cc3cc(F)c(OCc4cscn4)cc3[nH]2)CC1 [Compound 8, N-((5-fluoro-6-(thiazol-4-ylmethoxy)-1H-indol-2-yl)methyl)-1-methylcyclopropane-1-carboxamide]	0.051 µM	0.119 µM
Cc1cc2cc(CNC(=O)C3(C)CC3)[nH]c2cc1OCc1cscn1 [Compound 11, 1-methyl-N-((5-methyl-6-(thiazol-4-ylmethoxy)-1H-indol-2-yl)methyl)cyclopropane-1-carboxamide]	0.076 µM	0.118 µM
Cc1cc(COc2cc3[nH]c(CNC(=O)C4(C)CC4)cc3cc2F)on1 [Compound 12, N-((5-fluoro-6-((3-methylisoxazol-5-yl)methoxy)-1H-indol-2-yl)methyl)-1-methylcyclopropane-1-carboxamide]	0.144 µM	0.079 µM
Cc1ncc(COc2cc3[nH]c(CNC(=O)C4(C)CC4)cc3cc2F)s1 [Compound 13, N-((5-fluoro-6-((2-methylthiazol-5-yl)methoxy)-1H-indol-2-yl)methyl)-1-methylcyclopropane-1-carboxamide]	0.764 µM	0.637 µM
Cc1cc(COc2cc3[nH]c(CNC(=O)C4(C)CC4)cc3cc2C)no1 [Compound 14, 1-methyl-N-((5-methyl-6-((5-methylisoxazol-3-yl)methoxy)-1H-indol-2-yl)methyl)cyclopropane-1-carboxamide]	0.12 µM	0.111 µM
CC1(C(=O)NCc2cc3cc(Cl)c(OCc4cscn4)c(F)c3[nH]2)CC1 [Compound 18, N-((5-chloro-7-fluoro-6-(thiazol-4-ylmethoxy)-1H-indol-2-yl)methyl)-1-methylcyclopropane-1-carboxamide]	0.091 µM	0.078 µM
Cn1cc(COc2ccc3cc(CNC(=O)C4(C)CC4)[nH]c3c2)nn1 [Compound 168, 1-methyl-N-((6-((1-methyl-1H-1,2,3-triazol-4-yl)methoxy)-1H-indol-2-yl)methyl)cyclopropane-1-carboxamide]	7.44 µM	–
Cc1noc(COc2ccc3cc(CNC(=O)C4(C)CC4)[nH]c3c2)n1 [Compound 169, 1-methyl-N-((6-((3-methyl-1,2,4-oxadiazol-5-yl)methoxy)-1H-indol-2-yl)methyl)cyclopropane-1-carboxamide]	0.083 µM	–
CC1(C(=O)NCc2cc3ccc(OCc4csnn4)cc3[nH]2)CC1 [Compound 170, N-((6-((1,2,3-thiadiazol-4-yl)methoxy)-1H-indol-2-yl)methyl)-1-methylcyclopropane-1-carboxamide]	0.187 µM	–
CC1(C(=O)NCc2cc3ccc(OCc4nncs4)cc3[nH]2)CC1 [Compound 171, N-((6-((1,3,4-thiadiazol-2-yl)methoxy)-1H-indol-2-yl)methyl)-1-methylcyclopropane-1-carboxamide]	1.73 µM	–
Cn1ncc(COc2ccc3cc(CNC(=O)C4(C)CC4)[nH]c3c2)n1 [Compound 173, 1-methyl-N-((6-((2-methyl-2H-1,2,3-triazol-4-yl)methoxy)-1H-indol-2-yl)methyl)cyclopropane-1-carboxamide]	0.926 µM	–
Cn1nnc(COc2ccc3cc(CNC(=O)C4(C)CC4)[nH]c3c2)n1 [Compound 174, 1-methyl-N-((6-((2-methyl-2H-tetrazol-5-yl)methoxy)-1H-indol-2-yl)methyl)cyclopropane-1-carboxamide]	2.08 µM	–
Cc1cc(COc2cc3[nH]c(CNC(=O)C4(C)CC4)cc3cc2Cl)on1 [Compound 175, N-((5-chloro-6-((3-methylisoxazol-5-yl)methoxy)-1H-indol-2-yl)methyl)-1-methylcyclopropane-1-carboxamide]	0.038 µM	–
Cc1ncc(COc2cc3[nH]c(CNC(=O)C4(C)CC4)cc3cc2Cl)s1 [Compound 176, N-((5-chloro-6-((2-methylthiazol-5-yl)methoxy)-1H-indol-2-yl)methyl)-1-methylcyclopropane-1-carboxamide]	0.528 µM	–
Cc1ncc(COc2ccc3cc(CNC(=O)C4(C)CC4)[nH]c3c2)s1 [Compound 178, 1-methyl-N-((6-((2-methylthiazol-5-yl)methoxy)-1H-indol-2-yl)methyl)cyclopropane-1-carboxamide]	0.511 µM	–
Cc1nc(COc2ccc3cc(CNC(=O)C4(C)CC4)[nH]c3c2)cs1 [Compound 179, 1-methyl-N-((6-((2-methylthiazol-4-yl)methoxy)-1H-indol-2-yl)methyl)cyclopropane-1-carboxamide]	1.42 µM	–
Cc1nc(COc2ccc3cc(CNC(=O)C4(C)CC4)[nH]c3c2)co1 [Compound 180, 1-methyl-N-((6-((2-methyloxazol-4-yl)methoxy)-1H-indol-2-yl)methyl)cyclopropane-1-carboxamide]	0.563 µM	–
Cc1cc(COc2ccc3cc(CNC(=O)C4(C)CC4)[nH]c3c2)on1 [Compound 181, 1-methyl-N-((6-((3-methylisoxazol-5-yl)methoxy)-1H-indol-2-yl)methyl)cyclopropane-1-carboxamide]	0.183 µM	–
Cc1nc(COc2cc3[nH]c(CNC(=O)C4(C)CC4)cc3cc2Cl)co1 [Compound 182, N-((5-chloro-6-((2-methyloxazol-4-yl)methoxy)-1H-indol-2-yl)methyl)-1-methylcyclopropane-1-carboxamide]	0.091 µM	–
CC1(C(=O)NCc2cc3cc(Cl)c(OCc4cnsn4)cc3[nH]2)CC1 [Compound 183, N-((6-((1,2,5-thiadiazol-3-yl)methoxy)-5-chloro-1H-indol-2-yl)methyl)-1-methylcyclopropane-1-carboxamide]	0.039 µM	–
CC1(C(=O)NCc2cc3ccc(OCC4CCCC4)cc3[nH]2)CC1 [Compound 187, N-((6-(cyclopentylmethoxy)-1H-indol-2-yl)methyl)-1-methylcyclopropane-1-carboxamide]	0.178 µM	–
CC1(C(=O)NCc2cc3ccc(OCC4CCOC4)cc3[nH]2)CC1 (stereo not shown) [Compound 188, 1-methyl-N-((6-((tetrahydrofuran-3-yl)methoxy)-1H-indol-2-yl)methyl)cyclopropane-1-carboxamide]	4.45 µM	–
CNC(=O)NCc1cc2ccc(OCc3cscn3)cc2[nH]1 [Compound 217, 1-methyl-3-((6-(thiazol-4-ylmethoxy)-1H-indol-2-yl)methyl)urea]	3.42 µM	–
